Experimental data from patent US5374733A, “Sweetening agent derived from L-aspartic or L-glutamic acid” (priority 1989, dated 1994).

Assay: Sweetening potency: taste comparison by a team of eight experienced people with a sucrose reference solution
Conditions: Table 3; weight basis, compared with a 2% aqueous solution of sucrose
Description: The sweetening potency of the compounds described in the Examples was evaluated by a team of eight experienced people. This is done by comparing the taste of the compounds, in aqueous solution at variable concentrations, with a 2%, 5 % or 10 % reference solution of sucrose. The sweetening potency of the test compound compared with sucrose then corresponds to the weight ratio between the compound and sucrose for equal sweetening intensity, i.e. when the sweet tastes of the solution of the test compound and the reference solution of sucrose are considered, by a majority of people, to have the same sweetening intensity.
Summary Table 3 below gives, by way of examples, a list of a few compounds obtained by experimental protocols similar to those described above, which those skilled in the art will easily find, together with their relative sweetening potency (SP), evaluated on a weight basis, compared with a 2% aqueous solution of sucrose. When the groups R1, R2 and R3 are different, the configuration of the asymmetric carbon to which they are bonded (carbon marked with an asterisk) is designated according to the conventional rules of stereochemistry using the R/S system: R, S or, when both configurations coexist in the same compound, RS.

In order of falling “SP (relative sweetening potency)” value:
1. C[C@@H](Oc1ccccc1)C(=O)N[C@@H](CC(=O)O)C(=O)Nc1ccc(C#N)cc1 [CH3/H/C6 H5 O/R/1/CH/CH/CN]  18000
2. CC(Oc1ccccc1)C(=O)N[C@@H](CCC(=O)O)C(=O)Nc1ccc(C#N)nc1 (stereo partly drawn) [CH3/H/C6 H5 O/RS/2/N/CH/CN]  13000
3. CO[C@@H](C(=O)N[C@@H](CCC(=O)O)C(=O)Nc1ccc(C#N)nc1)c1ccccc1 [CH3 O/H/C6 H5/R/2/N/CH/CN]  11000
4. CCCCC(C)(C)C(=O)N[C@@H](CCC(=O)O)C(=O)Nc1ccc(C#N)cc1 [CH3/CH3/CH3 (CH2)3/2/CH/CH/CN]  11000
5. CC(C)CCC(C)(C)C(=O)N[C@@H](CCC(=O)O)C(=O)Nc1ccc(C#N)cc1 [CH3/CH3/(CH3)2 CH(CH2)2/2/CH/CH/CN]  10000
6. CCCC[C@H](C)C(=O)N[C@@H](CCC(=O)O)C(=O)Nc1cnc(C#N)nc1 [CH3/H/CH3 (CH2)3/S/2/N/N/CN]  10000
7. CC(C)CCC(C)C(=O)N[C@@H](CCC(=O)O)C(=O)Nc1ccc(C#N)cc1 (stereo partly drawn) [CH3/H/(CH3)2 CH(CH2)2/RS/2/CH/CH/CN]  6000
8. CCCCC(CC)C(=O)N[C@@H](CCC(=O)O)C(=O)Nc1ccc(C#N)cc1 (stereo partly drawn) [C2 H5/H/CH3 (CH2)3/RS/2/CH/CH/CN]  5000
9. CC(Oc1ccccc1)C(=O)N[C@@H](CCC(=O)O)C(=O)Nc1ccc(C#N)cc1 (stereo partly drawn) [CH3/H/C6 H5 O/RS/2/CH/CH/CN]  4000
10. C[C@H](C(=O)N[C@@H](CCC(=O)O)C(=O)Nc1ccc(C#N)nc1)c1ccccc1 [CH3/H/C6 H5/S/2/N/CH/CN]  4000
11. N#Cc1ccc(NC(=O)[C@H](CCC(=O)O)NC(=O)C2(c3ccccc3)CCCC2)cn1 [CH2 (CH2)2 CH2/C6 H5/2/N/CH/CN]  3000
12. CO[C@H](C(=O)N[C@@H](CCC(=O)O)C(=O)Nc1ccc(C#N)nc1)c1ccccc1 [CH3 O/H/C6 H5/S/2/N/CH/CN]  3000
13. CCCCCC(C)(C)C(=O)N[C@@H](CCC(=O)O)C(=O)Nc1ccc(C#N)nc1 [CH3/CH3/CH3 (CH2) 4/2/N/CH/CN]  3000
14. CCCC[C@@H](C)C(=O)N[C@@H](CCC(=O)O)C(=O)Nc1ccc(C#N)cc1 [CH3/H/CH3 (CH2)3/R/2/CH/CH/CN]  3000
15. CCC[C@H](C)C(=O)N[C@@H](CCC(=O)O)C(=O)Nc1ccc(C#N)cc1 [CH3/H/CH3 (CH2)2/S/2/CH/CH/CN]  2800
16. CCC(C(=O)N[C@@H](CCC(=O)O)C(=O)Nc1ccc(C#N)cc1)c1ccccc1 (stereo partly drawn) [C2 H5/H/C6 H5/RS/2/CH/CH/CN]  2700
17. N#Cc1ccc(NC(=O)[C@H](CCC(=O)O)NC(=O)C2(c3ccccc3)CC2)cc1 [CH2 CH2/C6 H5/2/CH/CH/CN]  2500
18. C[C@@H](C(=O)N[C@@H](CCC(=O)O)C(=O)Nc1ccc(C#N)nc1)c1ccccc1 [CH3/H/C6 H5/R/2/N/CH/CN]  2500
19. COC(C(=O)N[C@@H](CCC(=O)O)C(=O)Nc1ccc(C#N)cc1)c1ccccc1 (stereo partly drawn) [CH3 O/H/C6 H5/RS/2/CH/CH/CN]  2300
20. N#Cc1ccc(NC(=O)[C@H](CCC(=O)O)NC(=O)C(Cl)c2ccccc2)cc1 (stereo partly drawn) [Cl/H/C6 H5/RS/2/CH/CH/CN]  2200
21. N#Cc1ccc(NC(=O)[C@H](CCC(=O)O)NC(=O)C2(c3ccccc3)CCCC2)cc1 [CH2 (CH2)2 CH2/C6 H5/2/CH/CH/CN]  2000
22. CCCCC(OC)C(=O)N[C@@H](CCC(=O)O)C(=O)Nc1ccc(C#N)nc1 (stereo partly drawn) [CH3 O/H/CH3 (CH2)3/RS/2/N/CH/CN]  2000
23. CCCC[C@@H](C)C(=O)N[C@@H](CCC(=O)O)C(=O)Nc1ccc(C#N)nc1 [CH3/H/CH3 (CH2)3/R/2/N/CH/CN]  2000
24. C[C@H](C(=O)N[C@@H](CCC(=O)O)C(=O)Nc1ccc(C#N)cc1)c1ccccc1 [CH3/H/C6 H5/S/2/CH/CH/CN]  1500
25. CCCCC(C)C(=O)N[C@@H](CC(=O)O)C(=O)Nc1ccc(C#N)cc1 (stereo partly drawn) [CH3/H/CH3 (CH2)3/RS/1/CH/CH/CN]  1500
26. C[C@@H](C(=O)N[C@@H](CCC(=O)O)C(=O)Nc1ccc(C#N)cc1)c1ccccc1 [CH3/H/C6 H5/R/2/CH/CH/CN]  1300
27. N#Cc1ccc(NC(=O)[C@H](CC(=O)O)NC(=O)C2(c3ccccc3)CC2)cc1 [CH2 CH2/C6 H5/1/CH/CH/CN]  1000
28. CC(OC1C(C)CCCC1C)C(=O)N[C@@H](CCC(=O)O)C(=O)Nc1ccc(C#N)cc1 (stereo partly drawn) [CH3/H/(2,6-diMe)-c-C6 H9 O/RS/2/CH/CH/CN]  1000
29. CCCCCC(C)C(=O)N[C@@H](CCC(=O)O)C(=O)Nc1ccc(C#N)cc1 (stereo partly drawn) [CH3/H/CH3 (CH2)4/RS/2/CH/CH/CN]  1000
30. CC(C(=O)N[C@@H](CCC(=O)O)C(=O)Nc1ccc(C#N)cc1)C1CCCCC1 (stereo partly drawn) [CH3/H/c-C6 H11/RS/2/CH/CH/CN]  1000
31. CCCC[C@H](C)C(=O)N[C@@H](CCC(=O)O)C(=O)Nc1ccc(C(N)=O)cc1 [CH3/H/CH3 (CH2)3/S/2/CH/CH/CONH2]  700
32. CO[C@](C(=O)N[C@@H](CCC(=O)O)C(=O)Nc1ccc(C#N)cc1)(c1ccccc1)C(F)(F)F [CF3/CH3 O/C6 H5/S/2/CH/CH/CN]  600
33. CCCCC(C)(C)C(=O)N[C@@H](CCC(=O)O)C(=O)Nc1ccc(Cl)nc1 [CH3/CH3/CH3 (CH2)3/2/N/CH/Cl]  600
34. C=CCC(C)(C)C(=O)N[C@@H](CCC(=O)O)C(=O)Nc1ccc(C#N)cc1 [CH3/CH3/CH2 CHCH2/2/CH/CH/CN]  500
35. CCC[C@@H](C)C(=O)N[C@@H](CCC(=O)O)C(=O)Nc1ccc(C#N)cc1 [CH3/H/CH3 (CH2)2/R/2/CH/CH/CN]  500
36. CCCO[C@H](C)C(=O)N[C@@H](CCC(=O)O)C(=O)Nc1ccc(C#N)cc1 [CH3/H/CH3 (CH2)2 O/R/2/CH/CH/CN]  400
37. CCCC[C@H](C)C(=O)N[C@@H](CCC(=O)O)C(=O)Nc1ccc(C(C)=O)cc1 [CH3/H/CH3 (CH2)3/S/2/CH/CH/COCH3]  300
38. N#Cc1ccc(NC(=O)[C@H](CCC(=O)O)NC(=O)C(c2ccccc2)c2ccccc2)cc1 [C6 H5/H/C6 H5/2/CH/CH/CN]  250
39. CCCO[C@@H](C)C(=O)N[C@@H](CCC(=O)O)C(=O)Nc1ccc(C#N)cc1 [CH3/H/CH3 (CH2)2 O/S/2/CH/CH/CN]  200

Assay: not given
Conditions: Table 2, EP-A-0.338.946; sucrose concentration not stated; cited from earlier work

In order of rising SP:
1. CC(C)CCN[C@@H](CC(=O)O)C(=O)Nc1ccc(C#N)cc1 [(CH3)2 CHCH2 CH2/1/4-CN--C6 H4]  100
2. CCC(CC)CN[C@@H](CC(=O)O)C(=O)Nc1ccc(C#N)cc1 [(CH3 CH2)2 CHCH2/1/4-CN--C6 H4]  200
3. N#Cc1ccc(NC(=O)[C@H](CC(=O)O)NCCc2ccccc2)cc1 [C6 H5 CH2 CH2/1/4-CN--C6 H4]  300
4. N#Cc1ccc(NC(=O)[C@H](CCC(=O)O)NCCc2ccccc2)cc1 [C6 H5 CH2 CH2/2/4-CN--C6 H4]  300
5. CC(C)CCN[C@@H](CCC(=O)O)C(=O)Nc1ccc(C#N)cc1 [(CH3)2 CHCH2 CH2/2/4-CN--C6 H4]  800
6. N#Cc1ccc(NC(=O)[C@H](CCC(=O)O)NCCCc2ccccc2)cc1 [C6 H5 CH2 CH2 CH2/2/4-CN--C6 H4]  800
